Results taken from US20240100072A1, “SUBCUTANEOUSLY ADMINISTERED TREATMENTS FOR ADVANCED PARKINSON'S DISEASE” (AbbVie Inc., priority 2021, published 2024).

Tests used:
plasma proteins = experiment: Distribution: erythrocyte/plasma partitioning, plasma protein binding, blood-brain barrier; format: in vitro ADME
From the text: Levodopa is transported into the brain by the carrier mechanism for large neutral amino acids.

[1] = Metabolism and elimination; settings: in vivo; for half-life: human
From the text: Levodopa is mainly eliminated via metabolism by the aromatic amino acid decarboxylase (AAAD) and the catechol-O-methyl-transferase (COMT) enzymes. Other routes of metabolism are transamination and oxidation. The decarboxylation of levodopa to dopamine by AAAD is the major enzymatic pathway when no enzyme inhibitor is co-administered. O-methylation of levodopa by COMT forms 3-O-methyldopa. […] These 2 metabolites are primarily eliminated in the urine unchanged or as glucuronide conjugates.

blood-brain barrier passage (plasma proteins)	half-life [1] [h]	unchanged drug as share of the total urinary excretion [1] [%]	binding to plasma proteins (plasma proteins) [%]	partitioning ratio between erythrocytes and plasma (plasma proteins)	Compound
does not cross the blood-brain barrier	~2	30	–	–	C[C@@](Cc1ccc(O)c(O)c1)(NN)C(=O)O [carbidopa]
–	~1.5	–	< 10	approximately 1	N[C@@H](Cc1ccc(O)c(O)c1)C(=O)O [levodopa, L-3,4-dihydroxyphenylalanine]
